Results from PubChem BioAssay AID2060503 (Molecular Pharmacology Branch, DTP, NCI, 2025).

Test system: 817829-284-R-J1-PDC complex spheroids, viability
Assay: Anticancer human tumor 817829-284-R-J1-PDC patient-derived colon adenocarcinoma cell line growth inhibition [GQUAD]
Conditions: for IC50: curve of first compound; for viability, T/C: stronger effect = lower value
How it was run: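 Tumor cells were grown as complex spheroids with HUVEC endothelial cells and mesenchymal stem cells as stroma. G-quadruplex stabilizers were combined with targeted agents over half-log dilutions from near the clinical Cmax, or from 10 microM.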

[1] = second compound 0.0316 µM, first compound 0.0316 µM
[2] = second compound 0.0316 µM, first compound 0.1 µM
[3] = second compound 0.0316 µM, first compound 0.316 µM
[4] = second compound 0.0316 µM, first compound 1 µM
[5] = second compound 0.0316 µM, first compound 3.16 µM
[6] = second compound 0.0316 µM, first compound 10 µM
[7] = second compound 0.1 µM, first compound 0.0316 µM
[8] = second compound 0.1 µM, first compound 0.1 µM
[9] = second compound 0.1 µM, first compound 0.316 µM
[10] = second compound 0.1 µM, first compound 1 µM
[11] = second compound 0.1 µM, first compound 3.16 µM
[12] = second compound 0.1 µM, first compound 10 µM
[13] = second compound 0.316 µM, first compound 0.0316 µM
[14] = second compound 0.316 µM, first compound 0.1 µM
[15] = second compound 0.316 µM, first compound 0.316 µM
[16] = second compound 0.316 µM, first compound 1 µM
[17] = second compound 0.316 µM, first compound 3.16 µM
[18] = second compound 0.316 µM, first compound 10 µM
[19] = second compound 1 µM, first compound 0.0316 µM
[20] = second compound 1 µM, first compound 0.1 µM
[21] = second compound 1 µM, first compound 0.316 µM
[22] = second compound 1 µM, first compound 1 µM
[23] = second compound 1 µM, first compound 3.16 µM
[24] = second compound 1 µM, first compound 10 µM
[25] = second compound 3.16 µM, first compound 0.0316 µM
[26] = second compound 3.16 µM, first compound 0.1 µM
[27] = second compound 3.16 µM, first compound 0.316 µM
[28] = second compound 3.16 µM, first compound 1 µM
[29] = second compound 3.16 µM, first compound 3.16 µM
[30] = second compound 3.16 µM, first compound 10 µM
[31] = second compound 10 µM, first compound 0.0316 µM
[32] = second compound 10 µM, first compound 0.1 µM
[33] = second compound 10 µM, first compound 0.316 µM
[34] = second compound 10 µM, first compound 1 µM
[35] = second compound 10 µM, first compound 3.16 µM
[36] = second compound 10 µM, first compound 10 µM
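Note: spheroids exposed to agents for 7 days before readout.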
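Throughout, for viability, T/C: percent viability relative to DMSO vehicle control taken as 100%.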

## CC(=O)O[C@H]1C(=O)[C@@]2(C)[C@H]([C@H](OC(=O)c3ccccc3)[C@]3(O)C[C@H](OC(=O)[C@H](O)[C@@H](NC(=O)c4ccccc4)c4ccccc4)C(C)=C1C3(C)C)[C@]1(OC(C)=O)CO[C@@H]1C[C@@H]2O + CN(C)c1ccc(Nc2c3ccc(NC(=O)CCN4CCCC4)cc3nc3cc(NC(=O)CCN4CCCC4)ccc23)cc1
Second compound 0.0316 µM
  IC50: < 31.6 nM
Second compound 0.1 µM
  IC50: < 31.6 nM
Second compound 0.316 µM
  IC50: < 31.6 nM
Second compound 1 µM
  IC50: < 31.6 nM
Second compound 3.16 µM
  IC50: < 31.6 nM
Second compound 10 µM
  IC50: < 31.6 nM
[1]
  viability, T/C: 10.1%
[2]
  viability, T/C: 6.36%
[3]
  viability, T/C: 5.48%
[4]
  viability, T/C: 3.71%
[5]
  viability, T/C: 4.17%
[6]
  viability, T/C: 5.39%
[7]
  viability, T/C: 9.42%
[8]
  viability, T/C: 5.98%
[9]
  viability, T/C: 5.19%
[10]
  viability, T/C: 3.91%
[11]
  viability, T/C: 4.27%
[12]
  viability, T/C: 5.02%
[13]
  viability, T/C: 8.92%
[14]
  viability, T/C: 5.75%
[15]
  viability, T/C: 5.24%
[16]
  viability, T/C: 2.54%
[17]
  viability, T/C: 3.86%
[18]
  viability, T/C: 5.06%
[19]
  viability, T/C: 7.08%
[20]
  viability, T/C: 5.92%
[21]
  viability, T/C: 5.25%
[22]
  viability, T/C: 3.52%
[23]
  viability, T/C: 4.82%
[24]
  viability, T/C: 5.09%
[25]
  viability, T/C: 6.77%
[26]
  viability, T/C: 5.36%
[27]
  viability, T/C: 6.1%
[28]
  viability, T/C: 5.09%
[29]
  viability, T/C: 4.3%
[30]
  viability, T/C: 5.84%
[31]
  viability, T/C: 10.1%
[32]
  viability, T/C: 6.08%
[33]
  viability, T/C: 5.52%
[34]
  viability, T/C: 4.61%
[35]
  viability, T/C: 4.57%
[36]
  viability, T/C: 5.48%

## O=C(c1cc(Cc2n[nH]c(=O)c3ccccc23)ccc1F)N1CCN(C(=O)C2CC2)CC1 + Cc1cnc(CNC(=O)c2c(=O)c3ccc(N4CCCN(C)CC4)nc3n3c2sc2ccccc23)cn1
Second compound 0.0316 µM
  IC50: 1080 nM
Second compound 0.1 µM
  IC50: < 31.6 nM
Second compound 0.316 µM
  IC50: < 31.6 nM
Second compound 1 µM
  IC50: < 31.6 nM
Second compound 3.16 µM
  IC50: < 31.6 nM
Second compound 10 µM
  IC50: < 31.6 nM
[1]
  viability, T/C: 78.9%
[2]
  viability, T/C: 65.2%
[3]
  viability, T/C: 58.5%
[4]
  viability, T/C: 51.6%
[5]
  viability, T/C: 44.2%
[6]
  viability, T/C: 35.6%
[7]
  viability, T/C: 30.9%
[8]
  viability, T/C: 33.5%
[9]
  viability, T/C: 32.9%
[10]
  viability, T/C: 32.1%
[11]
  viability, T/C: 33.8%
[12]
  viability, T/C: 29.9%
[13]
  viability, T/C: 24.3%
[14]
  viability, T/C: 24.5%
[15]
  viability, T/C: 25.1%
[16]
  viability, T/C: 23.7%
[17]
  viability, T/C: 26.4%
[18]
  viability, T/C: 27.4%
[19]
  viability, T/C: 18.6%
[20]
  viability, T/C: 23.9%
[21]
  viability, T/C: 20.3%
[22]
  viability, T/C: 22.8%
[23]
  viability, T/C: 23.1%
[24]
  viability, T/C: 23.4%
[25]
  viability, T/C: 18.1%
[26]
  viability, T/C: 21%
[27]
  viability, T/C: 21.3%
[28]
  viability, T/C: 19%
[29]
  viability, T/C: 20%
[30]
  viability, T/C: 21.4%
[31]
  viability, T/C: 0.17%
[32]
  viability, T/C: 0.18%
[33]
  viability, T/C: 0.22%
[34]
  viability, T/C: 0.2%
[35]
  viability, T/C: 0.22%
[36]
  viability, T/C: 0.21%

## COc1cc(C2c3cc4c(cc3C(OC3OC5COC(C)OC5C(O)C3O)C3COC(=O)C23)OCO4)cc(OC)c1O (stereo unspecified) + Cc1cnc(CNC(=O)c2c(=O)c3ccc(N4CCCN(C)CC4)nc3n3c2sc2ccccc23)cn1
Second compound 0.0316 µM
  IC50: 39.3 nM
Second compound 0.1 µM
  IC50: < 31.6 nM
Second compound 0.316 µM
  IC50: < 31.6 nM
Second compound 1 µM
  IC50: < 31.6 nM
Second compound 3.16 µM
  IC50: < 31.6 nM
Second compound 10 µM
  IC50: < 31.6 nM
[1]
  viability, T/C: 57.3%
[2]
  viability, T/C: 30.7%
[3]
  viability, T/C: 35.5%
[4]
  viability, T/C: 23.1%
[5]
  viability, T/C: 15.1%
[6]
  viability, T/C: 7.07%
[7]
  viability, T/C: 30.4%
[8]
  viability, T/C: 31.3%
[9]
  viability, T/C: 22.9%
[10]
  viability, T/C: 24.6%
[11]
  viability, T/C: 15%
[12]
  viability, T/C: 6.35%
[13]
  viability, T/C: 22.4%
[14]
  viability, T/C: 27.7%
[15]
  viability, T/C: 23.2%
[16]
  viability, T/C: 21%
[17]
  viability, T/C: 11.9%
[18]
  viability, T/C: 7.02%
[19]
  viability, T/C: 18.7%
[20]
  viability, T/C: 21.1%
[21]
  viability, T/C: 18.8%
[22]
  viability, T/C: 22.5%
[23]
  viability, T/C: 12.2%
[24]
  viability, T/C: 5.25%
[25]
  viability, T/C: 19.6%
[26]
  viability, T/C: 22.5%
[27]
  viability, T/C: 19.5%
[28]
  viability, T/C: 15.9%
[29]
  viability, T/C: 9.99%
[30]
  viability, T/C: 5.08%
[31]
  viability, T/C: 0.08%
[32]
  viability, T/C: 0.12%
[33]
  viability, T/C: 0.15%
[34]
  viability, T/C: 0.11%
[35]
  viability, T/C: 0.15%
[36]
  viability, T/C: 0.14%
